Reference: US20090036437A1, “PHARMACEUTICAL COMPOSITION COMPRISING PHENOXAZINIUM COMPOUND AS AN ACTIVE INGREDIENT” (priority 2005, published 2009)
Marks after values point to notes of the source that are not given here.

Assays:
[1] = in vitro growth-inhibiting assay of rat L6 cells; assay type: cell-based; conditions: rat, L6 cells (rat skeletal myoblast cells); Table 3; 72 h, Alamar Blue; read-out: 50% growth-inhibiting concentration (nM) cytotoxicity L6
[2] = system: Plasmodium berghei NK65 strain; test: in vivo treatment test by oral administration into mouse infected with malaria; conditions: for Cure rate (%) / life-elongation effect: oral; for Cure rate (%): 5 days after infection
Protocol: This test was carried out in accordance with 4-day suppressive test that is a general in vivo test for the activity of an anti-malaria compound. Rodent malaria protozoa (Plasmodium berghei NK65 strain) were used in this test. Infected blood was prepared by infection with intraperitoneal administration into ICR male mouse (5 weeks age; SPF) and passage culture (subculture) thereafter. Blood was drawn from the vein of a tail of the moue infected with malaria, and its infection ratio was determined. After it was confirmed that the infection ratio had been increased up to an appropriated level (10˜20%), the blood infected with malaria was drawn from the heart of the mouse. The infection ratio and number (cells/mL) of erythrocytes were determined. An uninfected mouse (ICR male, 5 weeks age) was then infected with an injection of the infected erythrocytes so diluted with PBS as to comprise the protozoa of […] per dose (0.2 mL) into the vein of its tail.
A test sample was prepared by dissolving the test compounds according to the present invention into physiologic saline (Otsuka Pharmaceuticals Industries) to a predetermined concentration. In the case where the compound was insoluble in water, it was dissolved into DMSO or Tween 20 to prepare the test sample. A control group (no drug-administration group) was treated only with physiologic saline. Weight of the mouse was determined so that a dose would comprise 5.0 mg per 1 kg of its weight.
One group consisted of five mice. The intraperitoneal administration of the test sample started after two hours from the infection with malaria and continued for successive 4 days with a 24-hour interval. After 24 hours from the last administration, blood was drawn from the tail of the infected mouse to prepare a thin-layer smear, and the number of the erythrocytes infected with the malaria protozoa under a microscope with respect to the control group and the test sample groups. Parasitemia, i.e., the infection ratio with the malaria protozoa, was obtained by calculating an average value of the medium three mice except the two mice showing a maximum or minimum inhibition level. A cure rate (suppression) was then calculated from the resulting parasitemia in accordance with the following equation.
Cure rate: suppression (%)=(b−a)/b×100 • a: Infection ratio of the test sample group; and • b: Infection ratio of the control group.
The cure rate (%) of the mice after 5 days from the infection with malaria and the treatment with A-1 (60% purity) according to Example 5 (25-100 mg/kg/day, through the oral administration) were shown in TABLE 6. The oral administration, starting after two hours from the infection with malaria, consisted of four times with a 24-hour interval, 12 times with 8-hour interval or single dose.
The cure rate (%) of the mice after 5 days from the infection with malaria and the treatment with A-1 (100 mg/kg/day, through the oral administration of four times with a 24-hour interval or singe dose) were shown in TABLE 7.

Structure (SMILES): CC[N+](CC)=c1ccc2nc3ccc(N(C)C)cc3oc-2c1 [Compound A-4]
- EC50 at 72 h [1]: 4690 nM

Structure (SMILES): CCN(CC)c1ccc2nc3ccc(=[N+](CC)CC)cc-3oc2c1.[Cl-] [A-1 (60% purity)]
- mice still alive after 30 days ([2]; oral 100 mg/kg four times with a 24-hour interval, one mouse died on day 21): three mice of the four mice
- presence of the protozoa of malaria in blood of surviving mice after 36 days ([2]; oral 100 mg/kg four times with a 24-hour interval, three surviving mice): No protozoa of malaria was shown to be present in the blood
- Cure rate (%) ([2]; 12 times with 8-hour interval, 15 mg/kg/dose): >99.99%
- life-elongation effect ([2]; all treatments of Table 6): significant life-elongation effect
- Cure rate (%) ([2]; four times with a 24-hour interval, 25 mg/kg/dose): 82.3%
- Cure rate (%) ([2]; four times with a 24-hour interval, 50 mg/kg/dose): 98.6%
- Cure rate (%) ([2]; four times with a 24-hour interval, 90 mg/kg/dose): >99.99%
- Cure rate (%) ([2]; four times with a 24-hour interval, 100 mg/kg/dose, one of five mice died due to technical error): >99.99* %
- Cure rate (%) ([2]; single administration, 100 mg/kg/dose): >99.99%

Structure (SMILES): CCN(CC)c1ccc2nc3ccc(=[N+](CC)CC)cc-3oc2c1.[Cl-] [A-1 (>95% purity)]
- Cure rate (%) ([2]; Table 7, four times with 24-hour interval, 100 mg/kg/dose): >99.99%
- Cure rate (%) ([2]; Table 7, single administration, 100 mg/kg/dose): 78.3%
- life-elongation effect ([2]; all treatments of Table 7): significant life-elongation effect
